Measured values: patent US10702519B2, “Use of methoxatin, derivative and/or salt thereof in Sjogren's syndrome and pharmaceutical composition” (NANJING SHUPENG LIFESCIENCE CO., LTD, priority 2016, dated 2020)
Entries after “also recorded” stand apart in the source; their conditions may differ. Marks after values point to notes of the source that are not given here.

Experiments:
[1] = tested on: inflammatory factors in mouse submandibular glands tissue; experiment: Realtime quantitative PCR of inflammatory factors in mouse submandibular gland tissue; format: in vivo; conditions: for expression of IL-1β / expression of IL-6 / expression of IL-10 / expression of TNF-α: submandibular glands tissue, 36 weeks, p<0.05
Protocol: Take the mouse submandibular gland tissue and extract RNA using Trizol. Superscript III was used for reverse transcription. Reaction was performed at 42° C. for 30 minutes. Oligo dT and Random Hexamer were used as primers for reverse transcription. Realtime quantitative PCR reaction system: 2×PCR premix 10 μl, Primers 0.8 μl, cDNA 1 μl, add balance of H2O to 20 μl; Reaction conditions: 95° C. 10 min, 95° C. 15 s, 60° C. 60 s, Read plate for 50 cycles; Melting curve Analysis: Temperature 55° C.-95° C., read once per minute. Set up 3 replicates for each sample.

[2] = tested on: SOD in submandibular gland tissue of mice; experiment: Detection of SOD content in submandibular gland tissue; format: in vivo, mouse; conditions: for content of SOD compared with the control group: 36 weeks; for SOD (Mean ± SD): submandibular gland tissue of mice at 36 weeks of age
Protocol: Detection of SOD content: The submandibular gland tissue of mice were used to prepare tissue homogenates with icy physiological saline, and the protein content was quantified by BCA method. Refer to the kit operation instructions. Take 0.2 ml of the sample and mix it with 1.3 ml of test solution. Incubate at 37° C. for 40 min. Add 2 ml of chromogenic agent. Placed at room temperature for 10 min. Determine OD at 550 nm. The results are expressed in terms of U/mg protein, which states that the corresponding SOD amount per milligram of protein in a 1 ml reaction solution with a SOD inhibition rate of 50% is an SOD activity unit.

NOD mice = experiment: Saliva flow detection (pilocarpine-stimulated) in NOD mouse model of Sjogren's syndrome; format: in vivo; conditions: for salivary flow compared with the control group: P<0.05; for SFR (salivary flow): NOD mice, PQQ 1 mg/kg/day, active vitamin D 0.1 μg/kg/day; for salivary secretion function of NOD mice: summary statement
From the text: Model: NOD mouse model. NOD (Non-obese Diabetes) mice are a genetically deficient animal model of spontaneous diabetes. The female mice develop diabetes from 14 weeks and the incidence can reach as high as 80% by 30 weeks. NOD mice are also an animal model of Sjogren's syndrome. Mice develop inflammatory cell infiltration in the submandibular gland from 12 weeks of age, with increased expression of multiple inflammatory factors, and reduced salivary secretion and increased salivary salt concentration from 16 to 20 weeks of age.
Experimental grouping: 8-week-old female NOD mice were purchased from Shanghai SLE Experimental Animal Corporation and divided into control group, active vitamin d group, PQQ group and PQQ combined with active vitamin D group. There were four different treatment groups, 10 in each group. Saliva flow rates were measured at 12, 24, and 36 weeks of age. The amounts of PQQ and active vitamin D were 1 mg/kg body weight per day and 0.1 μg/kg body weight per day, respectively.
a. Intraperitoneal injection of 1.2% avertin (Chinese name: tribromoethanol), injection dose: 0.2 ml/10 g body weight, formula: (1) […] avertin dissolved in 0.25 ml t-amyl alcohol, shaking for 12 hours to completely dissolve; (2) Add 19.75 ml of 0.9% NaCl solution to obtain 1.2% avertin. Mice were anesthetized gently.
b. Subcutaneous pilocarpine injection in the neck, injection dose: 0.5 mg/kg=0.01 mg/20 g body weight, mother liquor concentration: 0.5 g/10 ml physiological saline=50 mg/ml=0.05×103 mg/ml, solution concentration: the mother liquor was diluted 1000 times, ie, 0.05 mg/ml, to stimulate saliva secretion.
c. Began to collect saliva after 5 minutes, that is, cotton ball with about 8 mg dry weight is made from sterile cotton ball, which is then put into a 1.5 mL EP tube to determine the dry weight. When measuring saliva secretion, the cotton ball is put into the mouse cheek and then taken into the EP tube after 10 min. The wet weight is determined on the electronic balance. Saliva secretion=wet weight of cotton balls−dry weight of cotton balls.

NF-κB = experiment: Western Blot detection of NF-κB activation in mouse submandibular gland tissue; format: in vivo; conditions: for phosphorylation level of P65: compared with the control group
Protocol: Detection of NF-κB Activation in Submandibular Gland Tissue of Mouse Submandibular Gland by Western Blot
Take the same amount of total protein for each sample, add 4×SDS loading buffer according to the ratio of protein sample: 4×SDS at 3:1, mix well, boil at 95° C. for 5 min, and prepare 10% separation gel and 5% concentration gel. Perform SDS-PAGE electrophoresis, transfer the membrane, and block the PVDF membrane with 5% solution of skim milk in TBST for 1 hour at room temperature or overnight at 4° C. Dilute antibody with blocking solution, incubate at room temperature for 2 h or 4° C. overnight. Wash membrane, incubate with secondary antibody, and then wash the membrane again. After the equal volume of liquids A and B in the luminescence kit were mixed in a vessel, the mixture was uniformly added dropwise to the PVDF membrane, and the reaction was carried out in the dark for 3-5 minutes.
At the 36th week of treatment, the mouse submandibular glands were taken and Western Blot was used to detect the activation of NF-κB. […] P65 is the protein subunit of NF-κB, and its phosphorylation level directly reflects the activity of NF-κB. In addition, IκB binds to NF-κB to prevent its entry into the nucleus and exerts its activity. Once IκB is phosphorylated, it is degraded and releases NF-κB.

[3] = tested on: MDA in submandibular gland tissue of mice; experiment: Detection of MDA content in submandibular gland tissue; format: in vivo, mouse; conditions: for content of MDA compared with the control group: 36 weeks, P<0.05; for MDA (Mean ± SD): submandibular gland tissue of mice at 36 weeks of age
Protocol: Detection of MDA content: The submandibular gland tissue in the submandibular glands of mice were harvested and homogenized with icy physiological saline. The protein content was quantified by BCA. Take 1 ml homogenate, add 1 ml 30% trichloroacetic acid and 1 ml 0.67% TBA in turn, bath in boiling water for 30 min and cool to room temperature. After centrifugation at 3000 g for 10 min, the absorbance (A) of the supernatant was measured at 535 nm, and the MDA content was calculated from the standard curve. The result was expressed in nmol/mg tissue.

[4] = tested on: mouse submandibular gland tissue; experiment: Mouse submandibular gland tissue slice detection (hematoxylin-eosin), lymphocytic infiltration; format: in vivo; conditions: NOD mice, 36 weeks age, FIG. 3
From the text: 36 weeks age of mouse submandibular gland tissue was isolated, embedded in paraffin and sliced, stained with hematoxylin-eosin and photographed with an inverted microscope.

[5] = chemical stability of o-quinone structure; cited from earlier work
[6] = rat, cited from earlier work
[7] = submandibular glands, 36th week

SMILES	expression of IL-1β [1]	expression of IL-6 [1]	expression of IL-10 [1]	expression of TNF-α [1]	content of SOD compared with the control group [2]	SOD (Mean ± SD) [2] [NU/mg protein]	salivary flow compared with the control group (NOD mice; 36th week)	SFR (salivary flow) (NOD mice; 12 W of age)	SFR (salivary flow) (NOD mice; 24 W of age)	SFR (salivary flow) (NOD mice; 36 W of age)	salivary flow compared with the control group (NOD mice; age of 24 weeks)	salivary secretion function of NOD mice (NOD mice)	phosphorylation level of P65 (NF-κB; [7])	content of MDA compared with the control group [3]	MDA (Mean ± SD) [3] [nmol/mg protein]	further results
C=C1/C(=C\C=C2/CCC[C@]3(C)[C@@H]([C@H](C)CCCC(C)(C)O)CC[C@@H]23)C[C@@H](O)C[C@@H]1O [active vitamin D, 1,25-Dihydroxyvitamin D3, reference compound]	did not detect the effect	did not detect the effect	did not detect the effect	did not detect the effect	no significant difference	102.45 ± 14.22	no statistical difference	2.74 (n = 10) μl/g/10 min	2.82 (n = 5) μl/g/10 min	3.22 (n = 4) μl/g/10 min	no significant difference	no effect	no significant change	no significant difference	9.48 ± 2.12	–
O=C(O)c1cc(C(=O)O)c2c(n1)C(=O)C(=O)c1cc(C(=O)O)[nH]c1-2 [PQQ, Pyrroloquinoline quinone]	significantly inhibited	significantly reduce; also recorded: significantly inhibited	significantly inhibited	significantly inhibited	significantly higher	198.21 ± 21.33	significantly higher	2.55 (n = 10) μl/g/10 min	3.21 (n = 6) μl/g/10 min	3.75* (n = 5) μl/g/10 min	no significant difference	significantly improve	significantly attenuated	significantly lower	4.61 ± 0.76	area of lymphocyte infiltration in submandibular gland [4]: significantly inhibit; also recorded: significantly reduced; expression of Il-1 ([1]; summary and FIG. 2 legend): significantly reduce; expression of gamma interferon ([1]; summary and FIG. 2 legend): significantly reduce; activity of NF-kappaB signaling pathway (NF-κB; submandibular gland tissues of NOD mice, summary statement): significantly reduce; phosphorylation level of IκB (NF-κB; [7]): significantly attenuated; redox cycles it can participate in [5]: 20,000; adverse reactions ([6]; 100 mg/kg body weight per day for 14 consecutive days): no adverse reactions were found; LD50 [6]: 1000-2000 mg/kg body weight; oxidative stress levels in submandibular gland tissues of NOD mice ([3]; summary statement): significantly inhibit
